Holding throughout (assay type): in vivo, human
In experiment [1] the test system is therapy resistant depression patient. The experiment can be described thus: Case report: therapy resistant depression, switched to oral zuclopenthixol. The following applies: for response to previous antidepressants: appropriate doses, sufficient duration. From the text:
Resistant depression patient is defined as a patient not responding to an appropriate pharmacological treatment.
Subject one diagnosed with chronic depression for the first time. […] They were then switched to oral zuclopenthixol. Before initiating oral zuclopenthixol treatment, the patient was considered as “markedly ill”.

Experiment [2] has as its system recurrent depression patient. The experiment can be described thus: Case report: recurrent depression, switched to oral zuclopenthixol. To be noted: for outcome under previous antidepressants: appropriate doses, sufficient duration, compliance ascertained. The text has this:
Recurrent depressive patient is defined as a patient experiencing two or more successive major depressive episodes that are separated by at least two months of not experiencing adequate symptoms of depression to qualify for major depressive disorder (DSM-IV).
Subject diagnosed with recurrent depression for the first time. […] Compliance with treatment was ascertained. […] After 2 years, the patient had still not relapsed.

Experiment [3] relates to therapy refractory schizophrenic patient. As to the kind of experiment: Case report: therapy refractory schizophrenia, switched to oral zuclopenthixol. The text has this: Subject two diagnosed with therapy refractory schizophrenia for the first time The patient had been treated with appropriate doses and for sufficient duration with oral aripiprazole, oral loxapine and oral olanzapine at appropriate doses and for sufficient duration. Compliance with treatment was ascertained. […] The patient was then switched to oral zuclopenthixol.

Experiment [4] has as its system therapy resistant schizophrenic patient. The experiment can be described thus: Case reports: therapy resistant schizophrenic patients switched to oral zuclopenthixol. The following applies: for response to previous antipsychotic agents: Case 1, oral, successive, appropriate doses and sufficient duration, compliance controlled. The text has this: Therapy resistant schizophrenic patient is a schizophrenic patient who has tried two successive antipsychotic agents for a period of 6 weeks at an appropriate dosage with no significant symptomatic relief of symptoms and who was compliant to pharmacological treatment. This definition comprises determining relief of symptoms by measurement on a clinical scale such as PANSS (positive and negative […] scale). The relief should correspond to a reduction of the PANSS scale of at least 20% after a period of 6 weeks treatment of an appropriate dosage. Lack of relief of symptoms should be assessed prospectively and should not be documented on the basis of historical information. Compliance to treatment should be documented through a third party such as nurse or care giver. Lack of compliance is often a reason for unsatisfactory outcome of schizophrenia therapy; if compliance is not documented the diagnosis of therapy resistant schizophrenia cannot be ascertained. Appropriate dosage is defined as an equivalent chlorpromazine of 400-700 mg per day.
Case 1. […] Compliance to treatment was ascertained. Before being given zuclopenthixol, the patient presented severe debilitating schizophrenic symptoms.
Case 2. Subject diagnosed with therapy resistant schizophrenia for the first time. […] Compliance with treatment was ascertained. The patient was then switched to oral zuclopenthixol. Before initiating zuclopenthixol treatment, the patient was considered as “markedly ill”.
Case 3. Subject diagnosed with therapy resistant schizophrenia for the first time. […] Compliance with treatment was ascertained. The patient was then switched to oral zuclopenthixol. Before initiating zuclopenthixol treatment, the patient was considered as “among the most extremely ill patients”. After 8 weeks of treatment with zuclopenthixol, the patient was evaluated as having “much improved”, as confirmed by C.G.I. and P.A.N.S.S.
Case 4. Subject diagnosed with therapy resistant schizophrenia for the first time. The patient had been treated with appropriate doses and for sufficient duration with the following antipsychotics: oral risperidone, oral aripiprazole, oral loxapine, and oral olanzapine. Compliance with treatment was ascertained. The patient was then switched to oral zuclopenthixol. Before initiating zuclopenthixol treatment, the patient was considered as “severely ill”. After 8 weeks of treatment with zuclopenthixol, the patient was evaluated as having “much improved”, as confirmed by C.G.I. and P.A.N.S.S.
Case 5. Subject diagnosed with therapy resistant schizophrenia for the first time. […] The patient was then switched to oral zuclopenthixol. […] After 8 weeks of treatment with zuclopenthixol, the patient was evaluated as having “much improved”, as confirmed by C.G.I. and P.A.N.S.S.

Experiment [5] concerns therapy resistant bipolar disorder patient. As to the kind of experiment: Case reports: therapy resistant bipolar disorder, prescribed oral zuclopenthixol. The following applies: for response to previous treatments: appropriate doses, sufficient duration, compliance ascertained. The text has this:
Resistant bipolar disorder patient is defined as a patient not responding to an appropriate pharmacological treatment.
Case 1. Subject diagnosed with therapy resistant bipolar disorder I presented as having manic state. They had been diagnosed for the first time. […] Compliance with treatment was ascertained. They were then prescribed oral zuclopenthixol. Before initiating oral zuclopenthixol treatment, the patient was considered as “among the most extremely ill patients”. After 8 weeks of treatment with zuclopenthixol, the patient was evaluated as having “much improved”.
Case 2. Subject diagnosed with therapy resistant bipolar disorder 11 presented with depressive symptoms. They had been diagnosed for the first time. […] Compliance with treatment was ascertained. They were then prescribed oral zuclopenthixol. Before initiating oral zuclopenthixol treatment, the patient was considered as “markedly ill”.

For experiment [6], the system named is naïve schizophrenic patient. As to the kind of experiment: Case report: naïve schizophrenic patient given zuclopenthixol as first antipsychotic. To be noted: 50 mg p. o. per day. The text has this:
Naïve schizophrenic patient is a schizophrenic patient who had never been treated with an antipsychotic agent.
After a period of 5 years of treatment, the patient had still not relapsed.

The mark [7] stands for this setting: person one, after 8 weeks of treatment.
Setting [8] is: person two, after 8 weeks of treatment.

The source of these data is patent US20080139573A1, “Treatment of resistant Schizophrenia and other CNS disorders” (Copharm, priority 2006, published 2008).

Molecules are shown by their SMILES. Entries after “also recorded” stand apart in the source; their conditions may differ. Some results are limits rather than exact numbers.

As for `CN(C)CCC=C1c2ccccc2CCc2ccccc21` [amytriptiline], the “response to previous antidepressants” value in experiment [1] is “without satisfactory response”. In addition, in experiment [2], the “outcome under previous antidepressants” value is “regularly experiencing new episodes of depression”.

Consider `O=C1CCc2ccc(OCCCCN3CCN(c4cccc(Cl)c4Cl)CC3)cc2N1` [aripiprazole], for which the “response to previous antipsychotics” value in experiment [3] (appropriate doses, sufficient duration, significant troublesome residual symptoms remained) is on record as “significant relief of symptoms”.

As to `CNCCC(Oc1ccc(C(F)(F)F)cc1)c1ccccc1` (stereo not shown) [fluoxetine], the “outcome under previous antidepressants” value in experiment [2] is “regularly experiencing new episodes of depression”.

Turning to `O=C(CCCN1CCC(O)(c2ccc(Cl)cc2)CC1)c1ccc(F)cc1` [haloperidol], the “response to previous antipsychotic agents” value in experiment [4] is reported as “did not respond”.

Turning to `Nc1nnc(-c2cccc(Cl)c2Cl)c(N)n1` [lamotrigine], the “response to previous treatments” value in experiment [5] was “without satisfactory response”.

As to `Fc1ccc([C@@H]2CCNC[C@H]2COc2ccc3c(c2)OCO3)cc1` [paroxetine], in experiment [1], the “response to previous antidepressants” value is “without satisfactory response”. The “outcome under previous antidepressants” value in experiment [2] is reported as “regularly experiencing new episodes of depression”.

Take `Cc1nc2n(c(=O)c1CCN1CCC(c3noc4cc(F)ccc34)CC1)CCCC2` [risperidone]: the “response to previous antipsychotic agents” value in experiment [4] is listed as “did not respond”.

For the compound `CN[C@H]1CC[C@@H](c2ccc(Cl)c(Cl)c2)c2ccccc21` [sertraline], the “response to previous antidepressants” value in experiment [1] is “without satisfactory response”. For the same compound, the “response to previous treatments” value in experiment [5] is “without satisfactory response”.

Take `Cl.Cl.OCCN1CCN(CC/C=C2/c3ccccc3Sc3ccc(Cl)cc32)CC1` [zuclopenthixol, 4-[(3Z)-3-(2-chloro-9H-thioxanthen-9-ylidene)propyl]-1-piperazineethanol dihydrochloride]: the “effect on schizophrenic symptoms” value in experiment [4] (Case 1, patient, exclusively oral zuclopenthixol, soon after start of treatment) is recorded as “major relief of schizophrenic symptoms”. Besides, the “evaluation of improvement, confirmed by C.G.I. and P.A.N.S.S.” value in experiment [4] (Cases 2-5, oral, after 8 weeks of treatment, dihydrochloride) is listed as “very much improved; also recorded: much improved”. Further, in experiment [1] (setting [7]), the “evaluation of improvement, confirmed by C.G.I.” value was “much improved” and the “reduction of depression on the Hamilton Depression Scale” value is listed as “marked response”. Also, in experiment [6], the “outcome of first antipsychotic treatment” value is listed as “successful” and the “period of treatment without relapse” value is on record as ≥ 5 years. In experiment [3] (setting [8]), the “evaluation of improvement, confirmed by C.G.I. and P.A.N.S.S.” value is recorded as “much improved”; the remission result is listed as “achieve remission”. For the same compound, the evaluation of improvement entry in experiment [5] (after 8 weeks of treatment, Case 1 bipolar I manic state, Case 2 depressive symptoms, dihydrochloride) was “much improved; also recorded: very much improved”. In experiment [2] (person), the period without relapse is ≥ 2 years and the response to treatment result is listed as “marked response”.
